Experimental data: patent publication US20190290656A1, “PT(IV) PRODRUGS” (YISSUM RESEARCH DEVELOPMENT COMPANY OF THE HEBREW …, priority 2015, published 2019)

How the values were obtained:
H157 cells = assay: MTT cytotoxicity assay, H157; type: cell-based, human; conditions: H157, 72 h
Description: (§1) MTT assay. […] Triplicate cultures were established for each treatment.
(§2) The two dimers, 3a and 3b, as well as compounds 1a and 2a were screened against six human cancer cell lines representative of lung (H157), colon (HCT-15), cervical (A431), ovarian (2008) and pancreatic (PSN1) cancers, along with melanoma (A375). Cytotoxicity was evaluated by means of the MTT test after 72 h of treatment and the in vitro antitumor potential of newly synthesized derivatives was compared to that of the reference metallo-drugs CDDP and OXP.

BxPC3 spheroids = assay: 3D spheroid APH assay, BxPC3; type: cell-based, human; conditions: 72 h, APH test
Excerpt: (§3) Acid phosphatase (APH) assay. A modified APH assay, which is based on quantification of cytosolic acid phosphatase activity, was used for determining cell viability in spheroids. […] Triplicate cultures were established for each treatment. […] Evaluation was based on means from at least four independent experiments.
(§4) In order to improve the predictive capacity of the in vitro assays, we tested the activity in three three-dimensional (3D) cell cultures; human colon cancer cells, HCT-15, and human pancreatic cancer cells, KRAS wild type BxPC3 cells KRAS mutated PSN-1 cells. The cancer spheroids were treated with 3a and 3b for 72 h and the cell viability was assessed by means of the APH assay (Table 6). For comparison purposes, the cytotoxicities of CDDP and OXP were evaluated under the same experimental conditions.

[1] = test system: Histone deacetylase (HDAC); assay: Histone deacetylase assay in PSN-1 cells; type: cell-based, human; conditions: 24 h, IC50 concentrations
Description: (§5) Histone deacetylase assay. Histone deacetylase activity was determined using Fluor-de-Lys® HDAC fluorometric activity assay kit (Enzo Life Sciences International, Inc., Plymount Meeting, Pa., U.S.A.). 2008 and PSN1 cells (5.10^4 seeded in 96-well microplates) were treated for 24 h with tested complexes, and then processed as reported by the manufacturer's instructions. Fluorescence was measured using a Fluoroskan Ascent FL (Labsystem, Finland) plate reader, with excitation at 360 nm and emission at 460 nm.
(§6) Thus, we measured both the levels of DNA platination and the ability of these pro-drugs to inhibit HDAC activity in cancer cells.

HCT-15 spheroids = assay: 3D spheroid APH assay, HCT-15; type: cell-based, human; conditions: HCT-15 spheroids, 72 h, APH test
Excerpt: as §3, §4

A431 cells = assay: MTT cytotoxicity assay, A431; type: cell-based, human; conditions: A431, 72 h
Description: as §1, §2

[2] = test system: human embryonic kidney HEK293 cells; assay: MTT cytotoxicity against non-tumor cells; type: cell-based
Description: as §1
The cytotoxic activity of derivatives 3a and 3b was also evaluated against non-tumor cells, namely human embryonic kidney HEK293 cells (Table 7). Both compounds 3a and 3b were more cytotoxic than CDDP.

[3] = test system: Histone deacetylase (HDAC); assay: Histone deacetylase assay in 2008 cells; type: cell-based, human; conditions: 24 h, IC50 concentrations
Description: as §5, §6

PSN-1 cells = assay: Glycolysis (Mito-ID O2 sensor), PSN-1; type: cell-based, human; conditions: IC50 concentrations, 24 h
Description: (§7) Glycolysis. The cellular glycolytic activity was assessed using the Mito-ID® O2 Extracellular Sensor Kit according to the manufacturer's instructions (Enzo Life Sciences, Farmingdale, N.Y.). Briefly, PSN-1 cells (15·10^3 per well) were seeded in 96-well plates. After 24 h, cells were treated with Mito-ID® O2 Sensor Probe Solution containing the tested compounds at the appropriate concentration. Fluorescence was estimated using a plate reader (Fluoroskan Ascent FL, Labsystem, Finland) at 350 nm (excitation) and 610 nm (emission).
(§8) Based on the above findings, we investigated the effects determined by derivatives 3a and 3b on 2008 and PSN-1 cancer cell aerobic glycolysis and mitochondria function.
(§9) However, these effects were magnified in PSN-1 cells, having reduction of cellular glycolytic activity of about 36 and 20% for 3a and 3b, respectively. […] This latter result could be explained tacking into consideration that the reference compound [Pt(DACH)(56Phen)] itself, that is also released upon reduction of 3a and 3b, is effective in hampering cellular glycolysis in both tested cancer cell lines. The difference between 3a and 3b might be attributed to the added effect of DCA.

2008 cells [4] = assay: Glycolysis (Mito-ID O2 sensor), 2008; type: cell-based, human; conditions: IC50 concentrations, 24 h
Description: as §7, §8, §9

HCT-15 cells = assay: MTT cytotoxicity assay, HCT-15; type: cell-based, human; conditions: HCT-15, 72 h, MTT (Table 5); read-out: IC50 (μM) ± S.D.
Description: (§10) Cisplatin (CDDP) and oxaliplatin (OXP) were dissolved just before the experiment in a 0.9% NaCl solution. […]
(§11) Cancer Res. 1988, 48, 589-601]. […] Triplicate cultures were established for each treatment.
as §1, §2

PSN1 cells = assay: MTT cytotoxicity assay, PSN1; type: cell-based, human; conditions: PSN1, 72 h, MTT
Description: as §1, §2

PSN-1 spheroids = assay: 3D spheroid APH assay, PSN-1; type: cell-based, human; conditions: PSN-1 spheroids, 72 h, APH test
Excerpt: as §3, §4

A375 cells = assay: MTT cytotoxicity assay, A375; type: cell-based, human; conditions: A375, 72 h, MTT (Table 5); read-out: IC50 (μM) ± S.D.
Description: as §10, §11, §1, §2

2008 cells [5] = assay: MTT cytotoxicity assay, 2008; type: cell-based, human; conditions: 2008, 72 h, MTT
Description: as §1, §2

c,c,t,t,c,c-[(DACH)(56Phen)(OAc)Pt(μ-OOC—(CH2)2—CONH(CH2)3COO)-Pt(OAc)(NH3)2(Cl2)](TFA)2 [Compound 3b]
IC50 (H157 cells): 8.25 ± 1.21 µM | IC50 (BxPC3 spheroids): 81.3 ± 6.25 µM | HDAC activity hampered [1]: not effective in modifying HDAC activity | IC50 (HCT-15 spheroids): 75.9 ± 4.52 µM | IC50 (A431 cells): 5.25 ± 0.41 µM | IC50 ([2]; HEK293 non-tumor cells, 72 h, MTT): 7.8 ± 3.36 µM | SI (selectivity index) ([2]; ratio between average IC50 of non-tumor cells and IC50 of malignant cells): 1.7 | HDAC activity hampered [3]: not effective in modifying HDAC activity | reduction of cellular glycolytic activity (PSN-1 cells): ~20% | reduction of glycolysis processes compared with untreated control cells (2008 cells [4]): ~14% | IC50 (HCT-15 cells): 1.89 ± 0.69 µM | IC50 (PSN1 cells): 6.12 µM | IC50 (PSN-1 spheroids): 60.5 ± 5.76 µM | IC50 (A375 cells): 1.05 ± 0.18 µM | IC50 (2008 cells [5]): 6.04 µM
